What was measured:
[1] = Volatility index calculation (concentration in air from vapor pressure); type: physicochemical; conditions: for CONCENTRATION IN AIR: calculated from vapor pressure by ideal gas equation, 20 to 25° C.; for VOLATILITY INDEX: concentration in the air relative to DEET at 20 to 25° C.
A. aegypti mosquitoes [2] = experiment: Olfactometer test (repellency from target air stream); type: in vivo; conditions: for mg to reach RD90: dose at which 90% of control population driven from target, 28 x 10 cm filter paper, female mosquitoes; for WEIGHT INDEX: ratio of weight of ingredient versus weight of DEET to achieve RD90, 25° C.
Description: The olfactometer test provides a means for measuring the effect of a volatile active ingredient on flying insects under precisely controlled conditions. Mosquitoes are used as the test insect. In this and the other Examples, below, the mosquitoes were A. aegypti. The olfactometer used for the olfactory tests described below generates two uniform, laminar flow air streams. These air streams consist of a target air stream superimposed upon and centered within a carrier air stream.
The olfactometer provides a square testing surface with an area of 929 cm^2. The testing area consists of a circular target area of 42 cm^2 centered on a square background surface area of 887 cm^2. In the tests described, a 200 ml/min flow of carbon dioxide was introduced into the carrier air stream to activate the mosquitoes. […] The flow rate of the carrier air stream was 300 to 350 liters/min. […] Elevated temperature and humidity at the level described for the target air stream are known to be attractive to mosquitoes. The flow rate of the target air stream was 12 liters/min.
The olfactometer has an air flow duct through which the carrier air flow strewn passes. A glass cylinder having one closed and one open end, an internal diameter of 6 cm and a depth of 14 cm is located within the air flow duct, with the longitudinal axis of the glass cylinder oriented parallel to the direction of flow of the carrier air flow stream, with the open end of the cylinder pointing down stream. The target air stream is generated by releasing a flow of temperature and humidity conditioned air into the glass cylinder near its closed end, from which point the air flows the length of the glass cylinder to exit at its open end.
Active insect control ingredients to be tested are impregnated in a filter paper test substrate (Grade 615 from VWR Scientific Inc.) having a length of 28 cm and a width of 10 cm. The filter paper test substrate is folded into a fluted cylinder and inserted coaxially within the glass cylinder to rest at a location between the point where the air is released into the glass cylinder and the open end of the glass cylinder. By this arrangement, the target air stream is caused to pass over the surface of the filter paper test substrate so that any active insect control ingredient present in the filter paper test substrate may evaporate into the target air stream before the target air stream exits the glass cylinder to continue, embedded within the flow of the carrier air stream.
Cubic test cages having 30.5 cm edges were constructed of four glass panels, with two opposing sides of the cubic test cages being open. One open side was designated the test panel and was covered with an airflow-transmitting, mosquito-retaining mesh. The opposite open side was covered with a closeable sleeve made of a tubular, open-weave, mosquito-retaining fabric well known in the art as “stockinet.” For any given test, the test cage normally contained from 250 to 350 female mosquitoes.
The test cage was placed in the air stream with the test panel facing and perpendicular to the direction of flow of the air streams of the olfactometer. In order to allow the mosquitoes to become activated by the carbon dioxide of the air streams, the test cage first was placed in the olfactometer for an initial 5 minute conditioning exposure. The test cage then was removed from the olfactometer for 3 minutes and then placed back in the olfactometer for a second 5 minute conditioning exposure. The test cage was again removed from the olfactometer for 3 minutes, during which time a control filter paper test substrate was inserted within the glass cylinder of the olfactometer. The test cage was then placed on the olfactometer for a 10 minute control exposure. The same procedure was repeated, using each time a filter paper test substrate impregnated with increasing amounts of active insect control ingredient. […]

A. aegypti mosquitoes [3] = experiment: Activity index calculation (volatility index x weight index); conditions: volatility index multiplied by weight index; DEET = 1.00
Description: The “activity index” is obtained by the multiplying the volatility index and the weight index. The activity index is an attempt to predict the combined effect of volatility and potency by weight in the usefulness of an insect control active ingredient for insect control of flying insects by passive evaporation. The following activity indices were calculated from the volatility and weight indices given, above: […]

A. aegypti mosquitoes [4] = experiment: Chamber test, first series (box fan), mosquito repellency and knock-down; type: in vivo; conditions: at least 50% repellency within 20 minutes with not more than a gram
Description: (§1) The chamber test protocol was developed to realistically model actual use conditions for the insect control article of the invention. A closed, generally featureless, approximately 28 m^3, box-like test chamber is used, the size of a small room. Six mosquito knock-down cages are distributed vertically within the test chamber, suspended from poles adjacent to opposite test chamber side walls, where they can be observed from outside the test chamber through chamber windows. Mosquitoes in the cages are observed during a test to evaluate the ability of a material being tested to knock down mosquitoes. An insect “knocked down” is one that is incapable of flying and usually is moribund in appearance. The insect may or may not actually be dead. The knock-down cages are cylindrical, approximately 6 cm long and 8 cm in diameter, and have screened but otherwise open ends.
(§2) Two repellency mosquito cages are also provided. The repellency cages are box-like screened cages, approximately 73 cm long and 16 cm square in cross section. All of the walls of the repellency cages are screened but otherwise generally open. Each repellency cage is divided by a clear plastic partition into a first holding area, which occupies approximately 45 cm of the length of the cage, and a second holding area, which occupies the remaining 28 cm. The plastic partition has a 4 cm diameter hole in its center that provides the only route by which mosquitoes may pass between the two holding areas. The repellency cages are mounted in a test chamber wall, with the plastic partition located in the plane of the test chamber wall, and are so oriented that the first holding area projects inwardly, into the test chamber, while the second holding area projects through the test chamber wall, out into normal room air.
(§3) A mouse cage essentially identical to a mosquito knock-down cage is mounted on the end of the first holding chamber of each repellency test cage that faces toward the interior of the test chamber. The mouse cage is separated from the repellency cage only by a mosquito-proof screen. One mouse is placed in the mouse cage during a test to provide an attractant for mosquitoes being held in the repellency test cage. Mosquitoes in the first holding area of a repellency cage thus are attracted toward the mouse, on the one hand, and repelled by the insect control article being tested, on the other hand.
(§4) When a test is run, fifty female mosquitoes are placed in the first holding area of each mosquito cage, with the partition hole closed by a removable door. Ten female mosquitoes are placed in each knock-down cage. The insect control article to be tested is placed centrally within the test chamber and the air flow is initiated. At timed intervals up to a total testing period of two hours, each knock-down cage and each repellency cage is visually examined, and the location, number, and condition of the mosquitoes are noted. The number of mosquitoes that have been driven to the second holding area provides a measure of the repellency of the insect control article being tested. The number of mosquitoes knocked down in the knock-down cages is also recorded. The general success of an insect control article is judged by both the mosquitoes repelled and those knocked down, in that both effects reduce the total number of mosquitoes available for biting.
Two series of tests were run using the chamber test protocol to evaluate the effect of insect control articles made in accordance with the invention. […]

A. aegypti mosquitoes [5] = experiment: Chamber test, second series (small blower, 0.06 m^3 per minute); type: in vivo
Description: as §1, §2, §3, §4
In an additional series of tests using the chamber protocol, two insect control active ingredients were tested for their ability to achieve the preferred practical control level, defined above. The experiment of the first series was substantially repeated except that the substrate was a 0.5 cm thick, 4.5 cm diameter coil of common corrugated cardboard, with the channels of the corrugation presented endwardly to the direction of air flow. […]

[6] = 0.5 cm thick, 4.5 cm diameter corrugated cardboard coil, blower 0.06 m^3 per minute, two hour test, NA = not achieved
[7] = 0.072 gm applied directly to the nine blades of the small blower, 0.06 m^3 per minute, two hour testing period

Row | Compound | CONCENTRATION IN AIR [1] | VOLATILITY INDEX [1] | mg to reach RD90 (A. aegypti mosquitoes [2]) | WEIGHT INDEX (A. aegypti mosquitoes [2]) | ACTIVITY INDEX (A. aegypti mosquitoes [3]) | practical insect control as defined (minimum practical control standard) (A. aegypti mosquitoes [4]) | Minutes to RD50 (A. aegypti mosquitoes [5]; [6]) | KD50 (A. aegypti mosquitoes [5]; [7]) | RD50 (A. aegypti mosquitoes [5]; [7]) | RD90 (A. aegypti mosquitoes [5]; [7]) | Minutes to KD50 (A. aegypti mosquitoes [5]; [6]) [min] | Minutes to RD90 (A. aegypti mosquitoes [5]; [6]) [min]
1 | Cc1c(F)c(F)c(COC(=O)[C@@H]2[C@H](/C=C(\Cl)C(F)(F)F)C2(C)C)c(F)c1F (racemic) [Tefluthrin] | 1.37 × 10^−5 grams per liter | 0.797 | 1.3 milligrams/filter paper test substrate | 0.014 | 0.011 | – | – | – | – | – | – | –
2 | C=CCC1=C(C)C(OC(=O)C2C(C=C(C)C)C2(C)C)CC1=O (stereo not drawn) [Allethrin (90% active), Allethrin] | 1.92 × 10^−6 grams per liter | 0.112 | 8.0 milligrams/filter paper test substrate | 0.085 | 0.0095 | – | – | – | – | – | – | –
3 | C=CCC1=C(C)C(OC(=O)[C@@H]2[C@@H](C=C(C)C)C2(C)C)CC1=O (stereo partly drawn) [Bioallethrin] | 1.46 × 10^−6 grams per liter | 0.085 | 5.5 milligrams/filter paper test substrate | 0.058 | 0.0049 | – | – | – | – | – | – | –
4 | CC1(C)C(C=C(Cl)Cl)C1C(=O)OC(C#N)c1ccc(F)c(Oc2ccccc2)c1 (stereo not drawn) [Cyfluthrin] | <7.11 × 10^−9 grams per liter | <0.00041 | >1000 milligrams/filter paper test substrate | >10.5 | – | – | – | – | – | – | – | –
5 | CC(C)=CC1C(C(=O)OC(C#N)c2cccc(Oc3ccccc3)c2)C1(C)C (stereo not drawn) [Cyphenothrin] | 1.85 × 10^−8 grams per liter | 0.0011 | ˜1000 milligrams/filter paper test substrate | ˜10.5 | ˜0.011 | – | – | – | – | – | – | –
6 | COP(=O)(OC)OC=C(Cl)Cl [DDVP] | 2.63 × 10^−5 grams per liter | 1.53 | 40 milligrams/filter paper test substrate | 0.42 | 0.60 | achieved | – | – | – | – | – | –
7 | CCN(CC)C(=O)c1cccc(C)c1 [DEET, N,N-diethyl-meta-toluamide] | 1.72 × 10^−5 grams per liter | 1.00 | 95 milligrams/filter paper test substrate | 1.00 | 1.00 | – | – | – | – | – | – | –
8 | C=CCC1=C(C)C(OC(=O)[C@@H]2[C@@H](C=C(C)C)C2(C)C)CC1=O (stereo partly drawn) [Esbiothrin] | 5.35 × 10^−6 grams per liter | 0.311 | 4.5 milligrams/filter paper test substrate | 0.047 | 0.0146 | achieved | – | – | – | – | – | –
9 | CC1(C)C(C=C(Cl)Cl)C1C(=O)OCc1cccc(Oc2ccccc2)c1 (stereo not drawn) [Permethrin] | 7.11 × 10^−9 grams per liter | 0.00041 | >1000 milligrams/filter paper test substrate | >10.5 | >0.004 | – | – | – | – | – | – | –
10 | C#CCC1=C(C)C(OC(=O)C2C(C=C(C)C)C2(C)C)CC1=O (stereo not drawn) [Prallethrin] | 5.80 × 10^−7 grams per liter | 0.034 | 5.5 milligrams/filter paper test substrate | 0.058 | 0.0020 | achieved | failed to achieve | – | – | – | – | –
11 | CNC(=O)Oc1ccccc1OC(C)C [Propoxur (Baygon), Propoxur] | – | – | >120 milligrams/filter paper test substrate | >1.26 | – | – | – | – | – | – | – | –
12 | CC1(C)[C@H](C=C(Cl)Cl)[C@H]1C(=O)OCc1c(F)c(F)cc(F)c1F [Transfluthrin] | 6.09 × 10^−8 grams per liter | 0.0035 | 0.57 milligrams/filter paper test substrate | 0.0059 | 0.00002 | achieved | 30 min | never achieved | never achieved | never achieved | 20 | 80
13 | C#CC(OC(=O)C1C(C=C(C)C)C1(C)C)/C(C)=C/CC (stereo not drawn) [Vaporthrin] | 9.75 × 10^−6 grams per liter | 0.567 | 5.3 milligrams/filter paper test substrate | 0.058 | 0.033 | achieved | – | – | – | – | – | –
14 | Pentecychlothrin [Pentecychlothrin (Zhong X1)] | 3.64 × 10^−7 grams per liter | 0.021 | 8.1 milligrams/filter paper test substrate | 0.085 | 0.0018 | – | – | – | – | – | – | –

Source: patent US6582714B1, “Article for insert control by passive evaporation of an active ingredient” (priority 1995, dated 2003)
